One assay has as its system Mucor. Put plainly: Antifungal activity against Mucor species. Type of assay: functional.
The test system of assay [1] is Erysipelothrix rhusiopathiae. Put plainly: Antibacterial activity against Erysipelothrix insidiosa. The format is functional.
The subject of the next assay is Trichophyton rubrum. Put plainly: Antifungal activity against Trichophyton rubrum. Type of assay: functional.
For assay [2], the system named is Staphylococcus haemolyticus. The assay is described as follows: Antibacterial against Staphylococcus hemolyticus. The format is functional.
The nature of assay [3]: Ratio of animals cured to that of animals infected, tested in vivo for antifungal activity against cutaneous candidosis in guinea pig; 0/2. Further: test concentration or dose not given here. The format is functional.
A further assay concerns Trichophyton benhamiae. The assay is described as follows: Antifungal activity against Trichophyton mentagrophytes. The format is functional, trychophyton mentagrophytes.
In a further assay the test system is Saprolegnia. Put plainly: Antifungal activity against Saprolegnia species. The format is functional.
The test system of the next assay is Microsporum canis. The assay is described as follows: Antifungal activity against Microsporum canis. Type of assay: functional.
The test system of the next assay is Sporothrix schenckii. Put plainly: Antifungal activity against Sporothrix schenck ii. Type of assay: functional.
The next assay relates to Candida tropicalis. Put plainly: Antifungal activity against Candida tropicalis. The format is functional.
Another assay concerns Cryptococcus neoformans. Put plainly: Antifungal activity against Cryptococcus neoformans. Type of assay: functional.
The test system of another assay is Streptococcus pyogenes. Put plainly: Antibacterial activity against Streptococcus pyogenes. The format is functional.
Assay [4] can be described thus: Ratio of animals cured to that of animals infected, tested in vivo for antifungal activity against vaginal candidosis in rat; 2/4.
A further assay concerns Phialophora verrucosa. The assay is described as follows: Antifungal activity against Phialophora verrucosa. Type of assay: functional.
The test system of a further assay is Candida albicans. The assay is described as follows: Antifungal activity against Candida albicans. Type of assay: functional.
In the next assay the test system is Aspergillus fumigatus. Put plainly: Antifungal activity against Aspergillus fumigatus. Type of assay: functional.
Assay [5] in a line: Ratio of animals cured to that of animals infected, tested in vivo for antifungal activity against vaginal candidosis in rat; 2/2.
The nature of assay [6]: Ratio of animals cured to that of animals infected, tested in vivo for antifungal activity against vaginal candidosis in rat; 0/2. Further: test concentration or dose not given here.
Assay [7] is described as follows: Ratio of animals cured to that of animals infected, tested in vivo for antifungal activity against cutaneous candidosis in guinea pig; 2/2. Further: test concentration or dose not given here. The format is functional.
A short description of assay [8]: Ratio of animals cured to that of animals […], Tested in vivo for antifungal activity against vaginal candidosis in rat; 1/2. Type of assay: functional.
Assay [9] can be described thus: Ratio of animals cured to that of animals […], Tested in vivo for antifungal activity against vaginal candidosis in rat; 0/2. The format is functional.
Assay [10] is described as follows: Ratio of animals cured to that of animals infected, tested in vivo for antifungal activity against cutaneous candidosis in guinea pig; 1/2. Type of assay: functional.

Among the data in ChEMBL document CHEMBL1121748, “Antimycotic imidazoles. 5. Synthesis and antimycotic properties of 1-[[2-aryl-4-(arylalkyl)-1,3-dioxolan-2-yl]methyl]-1H-imidazoles” (1981) are Inhibition and Ratio values, retold here.

A value given as a limit tells only on which side of the number the result lay.

As to `Clc1ccc(CCC2COC(Cn3ccnc3)(c3ccc(Cl)cc3Cl)O2)cc1` (stereo not drawn), the Inhibition was 10 µg/mL in the assay on Mucor; less than 1 µg/mL in [1]; 1 µg/mL with Trichophyton rubrum; 10 µg/mL in assay [2]; less than 1 µg/mL in the assay on Trichophyton benhamiae; 100 µg/mL in the assay on Saprolegnia. Also, the Inhibition in the assay on Microsporum canis was 1 µg/mL; with Sporothrix schenckii, 1 µg/mL; in the assay on Candida tropicalis, 10 µg/mL; with Cryptococcus neoformans, less than 1 µg/mL; in the assay on Streptococcus pyogenes, less than 1 µg/mL; in the assay on Phialophora verrucosa, 100 µg/mL. Further, the Inhibition in the assay with Candida albicans and in the assay on Aspergillus fumigatus was 10 µg/mL each time. Besides, the Ratio in [3] came out at 0; in assay [4], 2.
For the compound `Clc1ccc(C2(Cn3ccnc3)OCC(c3ccc(Br)cc3)O2)cc1` (stereo not drawn), the Inhibition in the assay with Mucor was 10 µg/mL; in [1], less than 1 µg/mL; in the assay with Trichophyton rubrum, less than 1 µg/mL; in assay [2], 10 µg/mL; in the assay with Trichophyton benhamiae, less than 1 µg/mL; with Saprolegnia, less than 1 µg/mL. The Inhibition in the assay with Microsporum canis was less than 1 µg/mL; in the assay with Sporothrix schenckii it was 10 µg/mL; in the assay on Candida tropicalis, 10 µg/mL; with Cryptococcus neoformans, less than 1 µg/mL; in the assay with Streptococcus pyogenes, less than 1 µg/mL; in the assay on Phialophora verrucosa, 100 µg/mL. Also, the results for the Inhibition in the assay on Candida albicans and in the assay with Aspergillus fumigatus were 10 µg/mL and less than 1 µg/mL, respectively. Moreover, the results for the Ratio in [3] and in assay [5] were 0 and 2, respectively.
On to `Clc1ccc(CC2COC(Cn3ccnc3)(c3ccc(Cl)cc3Cl)O2)cc1` (stereo not drawn), for which the Inhibition in the assay on Mucor was 10 µg/mL; in assay [1], less than 1 µg/mL; with Trichophyton rubrum, less than 1 µg/mL; in assay [2], 10 µg/mL; with Trichophyton benhamiae, less than 1 µg/mL; in the assay on Saprolegnia it was 100 µg/mL. In addition, the Inhibition with Microsporum canis was less than 1 µg/mL; in the assay on Sporothrix schenckii it was 10 µg/mL; with Candida tropicalis, 10 µg/mL; in the assay on Cryptococcus neoformans it was 1 µg/mL; in the assay on Streptococcus pyogenes, 100 µg/mL; in the assay with Phialophora verrucosa, 100 µg/mL. Moreover, the Inhibition in the assay on Candida albicans and in the assay on Aspergillus fumigatus was 10 µg/mL each time. Moreover, the Ratio was 0 in assay [6] and 2 in [7].
With `Clc1ccc(C2(Cn3ccnc3)OCC(c3ccccc3Cl)O2)cc1` (stereo not drawn), the Inhibition with Mucor was 100 µg/mL; in assay [1] it was 1 µg/mL; in the assay with Trichophyton rubrum, less than 1 µg/mL; in assay [2] it was 10 µg/mL; in the assay on Trichophyton benhamiae, less than 1 µg/mL; in the assay on Saprolegnia, 10 µg/mL. The Inhibition in the assay with Microsporum canis is 10 µg/mL; with Sporothrix schenckii it was more than 1 µg/mL; with Candida tropicalis, more than 100 µg/mL; in the assay with Cryptococcus neoformans it was 10 µg/mL; in the assay with Streptococcus pyogenes it was 1 µg/mL; in the assay on Phialophora verrucosa, 100 µg/mL. Besides, the values for the Inhibition with Candida albicans and in the assay on Aspergillus fumigatus were more than 100 µg/mL and 100 µg/mL, respectively. Also, the Ratio is 1 in assay [8] and 2 in assay [7].
On to `Clc1ccc(C2COC(Cn3ccnc3)(c3ccc(Cl)cc3Cl)O2)c(Cl)c1` (stereo not drawn), for which the Inhibition was 10 µg/mL in the assay with Mucor; less than 1 µg/mL in [1]; less than 1 µg/mL with Trichophyton rubrum; 10 µg/mL in assay [2]; less than 1 µg/mL in the assay on Trichophyton benhamiae; 100 µg/mL with Saprolegnia. In addition, the Inhibition in the assay on Microsporum canis was 10 µg/mL; in the assay with Sporothrix schenckii it was 10 µg/mL; with Candida tropicalis, more than 100 µg/mL; in the assay with Cryptococcus neoformans, less than 1 µg/mL; in the assay on Streptococcus pyogenes it was less than 1 µg/mL; with Phialophora verrucosa, 100 µg/mL. Also, the Inhibition in the assay with Candida albicans is more than 100 µg/mL; in the assay on Aspergillus fumigatus it was less than 1 µg/mL. Further, the Ratio in [5] came to 2.
Turning to `Clc1ccc(C2(Cn3ccnc3)OCC(Cc3ccccc3)O2)c(Cl)c1` (stereo not drawn), the Inhibition with Mucor was 10 µg/mL; in assay [1], less than 1 µg/mL; in the assay on Trichophyton rubrum it was less than 1 µg/mL; in assay [2] it was 10 µg/mL; in the assay on Trichophyton benhamiae it was less than 1 µg/mL; in the assay with Saprolegnia, 10 µg/mL. The Inhibition in the assay on Microsporum canis was less than 1 µg/mL; in the assay with Sporothrix schenckii it was 10 µg/mL; with Candida tropicalis, 10 µg/mL; in the assay on Cryptococcus neoformans it was less than 1 µg/mL; with Streptococcus pyogenes, 10 µg/mL; in the assay on Phialophora verrucosa, 100 µg/mL. The Inhibition in the assay with Candida albicans is 100 µg/mL; in the assay on Aspergillus fumigatus, less than 1 µg/mL. The Ratio was determined as 2 in [7] and 0 in assay [9].
In the case of `Fc1ccc(C2COC(Cn3ccnc3)(c3ccc(Br)cc3)O2)cc1` (stereo not drawn), the Inhibition in the assay on Mucor was less than 1 µg/mL; in [1], 10 µg/mL; with Trichophyton rubrum, less than 1 µg/mL; in assay [2] it was 100 µg/mL; in the assay with Trichophyton benhamiae it was less than 1 µg/mL; in the assay with Saprolegnia, 100 µg/mL. The Inhibition with Microsporum canis is less than 1 µg/mL; in the assay with Sporothrix schenckii it was 10 µg/mL; in the assay with Candida tropicalis, 100 µg/mL; in the assay on Cryptococcus neoformans, 10 µg/mL; with Streptococcus pyogenes, less than 1 µg/mL; with Phialophora verrucosa, 100 µg/mL. Further, the Inhibition is 100 µg/mL in the assay with Candida albicans and less than 1 µg/mL in the assay on Aspergillus fumigatus. The Ratio in [10] is 0.5; in assay [4], 2.
Take `Fc1ccc(C2COC(Cn3ccnc3)(c3ccc(Cl)cc3)O2)cc1` (stereo not drawn): the Inhibition in the assay on Mucor is 10 µg/mL; in assay [1] it was 100 µg/mL; in the assay with Trichophyton rubrum, less than 1 µg/mL; in assay [2], more than 100 µg/mL; with Trichophyton benhamiae it was less than 1 µg/mL; with Saprolegnia, 100 µg/mL. In addition, the Inhibition in the assay with Microsporum canis was less than 1 µg/mL; in the assay on Sporothrix schenckii, 10 µg/mL; in the assay with Candida tropicalis, 100 µg/mL; in the assay on Cryptococcus neoformans it was 10 µg/mL; in the assay with Streptococcus pyogenes, 10 µg/mL; in the assay with Phialophora verrucosa, 100 µg/mL. Further, the Inhibition is 100 µg/mL with Candida albicans and less than 1 µg/mL in the assay on Aspergillus fumigatus. For the same compound, the Ratio in [7] amounted to 1; in assay [9], 0.
As for `Fc1ccc(CC2COC(Cn3ccnc3)(c3ccc(Cl)cc3Cl)O2)cc1` (stereo not drawn), the Inhibition was less than 1 µg/mL in the assay with Mucor; less than 1 µg/mL in assay [1]; less than 1 µg/mL in the assay on Trichophyton rubrum; 10 µg/mL in assay [2]; less than 1 µg/mL in the assay on Trichophyton benhamiae; 10 µg/mL with Saprolegnia. In addition, the Inhibition was less than 1 µg/mL in the assay with Microsporum canis; 10 µg/mL in the assay on Sporothrix schenckii; 100 µg/mL with Candida tropicalis; 10 µg/mL with Cryptococcus neoformans; 10 µg/mL in the assay on Streptococcus pyogenes; 100 µg/mL in the assay on Phialophora verrucosa. Further, the Inhibition with Candida albicans turned out to be 100 µg/mL; with Aspergillus fumigatus, 10 µg/mL. Besides, the Ratio in assay [9] is 0.
On to `Clc1ccc(C2COC(Cn3ccnc3)(c3ccc(Cl)cc3Cl)O2)cc1` (stereo not drawn), for which the Inhibition is 10 µg/mL with Mucor; 1 µg/mL in assay [1]; less than 1 µg/mL in the assay on Trichophyton rubrum; 10 µg/mL in assay [2]; less than 1 µg/mL in the assay with Trichophyton benhamiae; 100 µg/mL with Saprolegnia. Moreover, the Inhibition in the assay with Microsporum canis is less than 1 µg/mL; with Sporothrix schenckii it was 10 µg/mL; with Candida tropicalis it was 10 µg/mL; in the assay with Cryptococcus neoformans, less than 1 µg/mL; in the assay with Streptococcus pyogenes, 1 µg/mL; with Phialophora verrucosa, 100 µg/mL. Also, the Inhibition in the assay with Candida albicans is 100 µg/mL; in the assay with Aspergillus fumigatus it was less than 1 µg/mL. In addition, in assay [10], the Ratio is recorded as 1.
For the compound `Cc1ccc(C2(Cn3ccnc3)OCC(c3ccccc3Cl)O2)cc1` (stereo not drawn), the Inhibition with Mucor was 100 µg/mL; in [1] it was 1 µg/mL; with Trichophyton rubrum, less than 1 µg/mL; in assay [2] it was 100 µg/mL; with Trichophyton benhamiae, less than 1 µg/mL; in the assay on Saprolegnia, 100 µg/mL. Besides, the Inhibition was 10 µg/mL in the assay with Microsporum canis; 10 µg/mL with Sporothrix schenckii; more than 100 µg/mL in the assay with Candida tropicalis; 100 µg/mL in the assay on Cryptococcus neoformans; less than 1 µg/mL with Streptococcus pyogenes; 100 µg/mL in the assay with Phialophora verrucosa. The Inhibition with Candida albicans and in the assay with Aspergillus fumigatus was 100 µg/mL each time. In addition, the figures for the Ratio in [3] and in assay [8] were 0 and 0.5, respectively.
